The values that follow come from patent US20070197625A1, “Azabicyclic compounds, a process for their preparation and pharmaceutical compositions containing them” (Les Laboratoraties Servier, priority 2004, published 2007).

The assay concerns the target T1, type H3 central histaminergic receptors (Mus musculus, UniProt P58406).
T1 construct: from tissue; host or cells: brain of living NMRI mice
Put plainly: Cerebral doses of N^t-methylhistamine in the NMRI mouse (ex vivo, after oral administration). The settings on record: NMRI mice, brain two hours after treatment, vs carrier control. Here is the method: The aim of this study, carried out according to the method of Taylor et al. (Biochem. Pharm., 1992, 44, 1261-1267), is to evaluate the ex vivo activity of the compounds of the present invention as type H3 central histaminergic receptor antagonists. […] An increase in the cerebral concentrations of N^t-methylhistamine signifies an increase in histamine turnover by blockade of the type H3 central histaminergic receptors.
NMRI mice (18-20 g) are treated via oral administration with the compounds of the present invention or with their carrier (20 ml/kg). Two hours after the pharmacological treatment, the animals are sacrificed, the brains are removed, frozen in liquid nitrogen, weighed and homogenised in 0.1N HClO4 at 4° C. The homogenates are centrifuged (15000 g, 17 min, 4° C.). The supernatants are recovered and divided into aliquots. The aliquots are frozen in liquid nitrogen and stored at −80° C. until their analysis.
Determination of the cerebral levels of N^t-methylhistamine is effected by capillary electrophoresis coupled with detection by laser-induced fluorescence (J. Chromatogr. A., 1996, 755, 99-115). The tissue levels of N^t-methylhistamine are expressed in ng/g of fresh brain. Comparison between the cerebral levels of N^t-methylhistamine of the animals treated with the carrier (control) and the animals treated with the compounds of the present invention (n=5/group) is effected by single factor variance analysis followed, if necessary, by a supplementary analysis (Dunnett's test).

T1 sequence (P58406 whole entry): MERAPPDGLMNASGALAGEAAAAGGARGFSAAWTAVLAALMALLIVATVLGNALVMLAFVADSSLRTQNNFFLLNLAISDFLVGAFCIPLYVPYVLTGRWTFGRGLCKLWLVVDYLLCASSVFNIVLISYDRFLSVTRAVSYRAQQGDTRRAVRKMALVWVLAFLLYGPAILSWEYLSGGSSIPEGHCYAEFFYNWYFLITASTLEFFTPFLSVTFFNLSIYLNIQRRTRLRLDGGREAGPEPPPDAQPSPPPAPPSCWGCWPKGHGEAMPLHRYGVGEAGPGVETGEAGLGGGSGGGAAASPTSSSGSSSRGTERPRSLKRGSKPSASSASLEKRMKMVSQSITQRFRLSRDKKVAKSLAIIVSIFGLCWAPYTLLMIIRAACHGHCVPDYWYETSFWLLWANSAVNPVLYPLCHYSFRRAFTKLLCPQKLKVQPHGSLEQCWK

Regarding `N#Cc1ccc(OCCCN2CC3CCCC3C2)cc1.O=C(O)C(=O)O` (centres unmarked) [Example 1, 4-(3-Hexahydrocyclopenta[c]pyrrol-2(1H)-ylpropoxy)benzonitrile oxalate], the “increase of the endogenous cerebral concentrations of N^t-methylhistamine” value (from here on “increase”) (10 mg/kg p.o.) amounted to 92%.
`CC(=O)Nc1ccc(OCCCN2CC3CCCC3C2)cc1.O=C(O)C(=O)O` (centres unmarked) [Example 4, N-[4-(3-Hexahydrocyclopenta[c]pyrrol-2(1H)-ylpropoxy)-phenyl]acetamide oxalate]: under “3 mg/kg p.o.”, the “increase” value is recorded as 52%.
For `NC(=O)c1ccc(OCCCN2CC3CCCC3C2)cc1.O=C(O)C(=O)O` (centres unmarked) [Example 22, 4-(3-Hexahydrocyclopenta[c]pyrrol-2(1H)-ylpropoxy)benzamide oxalate], the “increase” value is reported as 33% (3 mg/kg p.o.) and 85% (10 mg/kg p.o.).
Consider `CNC(=O)c1ccc(OCCCN2CC3CCCC3C2)cc1` (centres unmarked) [Example 93, 4-[3-(Hexahydrocyclopenta[c]pyrrol-2(1H)-yl)propoxy]-N-methylbenzamide], for which the “increase” value (3 mg/kg p.o.) came to 90%.
